The source made the active and inactive calls. No cut-off for these calls is given here.
What was measured:
[1] = target: T1, NAD-dependent protein deacylase sirtuin-5, mitochondrial (Homo sapiens, UniProt Q9NXA8); assay: Inhibition of human Sirt5 desuccinylation activity using SKEYFS-succinylLys-QK as substrate at 100 uM after 60 mins by glutamate dehydrpgenase-coupled assay
Target sequence in this assay (Q9NXA8 37-310 limits assumed): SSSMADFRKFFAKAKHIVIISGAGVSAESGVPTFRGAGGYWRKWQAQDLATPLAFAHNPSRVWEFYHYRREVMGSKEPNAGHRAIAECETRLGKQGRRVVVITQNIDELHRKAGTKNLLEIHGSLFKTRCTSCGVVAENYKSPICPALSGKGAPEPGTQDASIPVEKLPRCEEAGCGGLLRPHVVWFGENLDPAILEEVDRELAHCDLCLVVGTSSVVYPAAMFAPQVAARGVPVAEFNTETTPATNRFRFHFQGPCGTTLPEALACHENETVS

[2] = target: T1, NAD-dependent protein deacylase sirtuin-5, mitochondrial; assay: Inhibition of human Sirt5 deacetylation activity using FKRGVL-acetylLys-EYGVKV as substrate at 100 uM after 60 mins by glutamate dehydrogenase-coupled assay
Target sequence in this assay (Q9NXA8 37-310 limits assumed): as above

[3] = target: T1, NAD-dependent protein deacylase sirtuin-5, mitochondrial; assay: Inhibition of human Sirt5 desuccinylation activity using SKEYFS-succinylLys-QK as substrate assessed as activity remaining at 100 µM measured for 20 mins by MS analysis
Target sequence in this assay (Q9NXA8 37-310 limits assumed): as above

[4] = target: T1, NAD-dependent protein deacylase sirtuin-5, mitochondrial; assay: Inhibition of human Sirt5 desuccinylation activity using SKEYFS-succinylLys-QK as substrate measured for 15 mins by MS analysis
Target sequence in this assay (Q9NXA8 whole entry): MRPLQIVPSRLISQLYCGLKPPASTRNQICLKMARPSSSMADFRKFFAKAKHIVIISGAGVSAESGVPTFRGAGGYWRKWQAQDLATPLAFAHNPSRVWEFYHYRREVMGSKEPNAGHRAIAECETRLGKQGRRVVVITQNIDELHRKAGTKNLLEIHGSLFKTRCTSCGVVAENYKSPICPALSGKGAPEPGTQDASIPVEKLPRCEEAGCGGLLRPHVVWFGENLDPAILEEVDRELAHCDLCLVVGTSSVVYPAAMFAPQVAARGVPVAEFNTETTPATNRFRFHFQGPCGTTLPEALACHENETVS

[5] = target: T1, NAD-dependent protein deacylase sirtuin-5, mitochondrial; assay: Inhibition of human Sirt5 deacetylation activity using FKRGVL-acetylLys-EYGVKV as substrate assessed as activity remaining at 100 µM measured for 20 mins by MS analysis
Target sequence in this assay (Q9NXA8 37-310 limits assumed): as the sequence (Q9NXA8 37-310 limits assumed) above

[6] = target: T1, NAD-dependent protein deacylase sirtuin-5, mitochondrial; assay: Inhibition of human Sirt5 deacetylation activity using FKRGVL-acetylLys-EYGVKV as substrate measured for 15 mins by MS analysis
Target sequence in this assay (Q9NXA8 whole entry): as the sequence (Q9NXA8 whole entry) above

[7] = target: T1, NAD-dependent protein deacylase sirtuin-5, mitochondrial; assay: Selectivity ratio of IC50 for human Sirt5 deacetylation activity to IC50 for human Sirt5 desuccinylation activity
Target sequence in this assay (Q9NXA8 37-310 limits assumed): as the sequence (Q9NXA8 37-310 limits assumed) above

[8] = target: T1, NAD-dependent protein deacylase sirtuin-5, mitochondrial; assay: Inhibition of human Sirt5 deacetylation activity using SKEYFS-acetylLys-QK as substrate measured for 15 mins by MS analysis
Target sequence in this assay (Q9NXA8 whole entry): as the sequence (Q9NXA8 whole entry) above

Row | inhibition [1] | inhibition [2] | SMILES | other results
1 | inactive | inactive | O=C(Nc1ccccc1-c1cn2c(CN3CCNCC3)csc2n1)c1cnc2ccccc2n1 | –
2 | 20% | inactive | CC(C(=O)Nc1cccc(/N=C/c2c(O)ccc3ccccc23)c1)c1ccccc1 (stereo not given) | –
3 | 20% | Active | Cc1ccc(C(=O)Nc2ccc(S(=O)(=O)O)c3cc(S(=O)(=O)O)cc(S(=O)(=O)O)c23)cc1NC(=O)c1cccc(NC(=O)Nc2cccc(C(=O)Nc3cc(C(=O)Nc4ccc(S(=O)(=O)O)c5cc(S(=O)(=O)O)cc(S(=O)(=O)O)c45)ccc3C)c2)c1 | –

Second part, the molecule before the results:

Row | SMILES | inhibition [1] | inhibition [2] | other results
4 | O=C1Nc2ccc(I)cc2C1=Cc1cc(Br)c(O)c(Br)c1 [GW305074X] | – | – | Activity [3]: 15%; IC50 [4]: 19.5 µM; Activity [5]: 30%; IC50 [6]: 97.8 µM; Ratio IC50 [7]: 4; IC50 [8]: 200 µM
5 | CC(NC(=O)c1ccccc1/N=C/c1c(O)ccc2ccccc12)c1ccccc1 (stereo not given) | inactive | inactive | –
6 | O=C1Oc2ccc3cc(Br)ccc3c2CC1c1ccccc1 (stereo not given) | inactive | inactive | –
7 | N#C/C(=C\c1ccc(-c2cc(Cl)ccc2Cl)o1)C(=O)Nc1cccc2ncccc12 | inactive | inactive | –
8 | NC(=O)C1CCCc2c1[nH]c1ccc(Cl)cc21 (stereo not given) | inactive | inactive | –

Reference: ChEMBL document CHEMBL2311504, “Inhibition of the human deacylase Sirtuin 5 by the indole GW5074” (Bioorg Med Chem Lett, 2013)
